Like-named read-outs stand apart in the source and are kept apart here. Numbered stars: 1 amine (or outer) side, 2 acyl side, 3 side chain; on linkers, the order of the positions; unused ones are H or OH. Bridge positions count the residues as written; N and C are the ends. Square brackets hold non-standard residues; d marks the D form. Peptide text beside a SMILES is read from it. Phe(4-CF3) = N[C@@H](Cc1ccc(C(F)(F)F)cc1)C(=O)O; dPhe(4-CF3) = N[C@H](Cc1ccc(C(F)(F)F)cc1)C(=O)O; Bip = N[C@@H](Cc1ccc(-c2ccccc2)cc1)C(=O)O; Phe(4-Br) = N[C@@H](Cc1ccc(Br)cc1)C(=O)O; Phe(4-NH2) = Nc1ccc(C[C@H](N)C(=O)O)cc1; d2Thi = N[C@H](Cc1cccs1)C(=O)O; Suc = O=C(CCC(=O)[*:2])[*:1]; Ac3c = NC1(C(=O)O)CC1
Assays:
[1] = target: T1, TNFα / TNFα receptor (TNFα R1/Fc) (Homo sapiens, UniProt P01375); experiment: Inhibition of binding of TNFα to the TNFα receptor (plate ELISA competition); conditions: Table 2
T1 construct: purchased R&D Systems
T1 sequence (P01375 77-233 limits assumed, species assumed): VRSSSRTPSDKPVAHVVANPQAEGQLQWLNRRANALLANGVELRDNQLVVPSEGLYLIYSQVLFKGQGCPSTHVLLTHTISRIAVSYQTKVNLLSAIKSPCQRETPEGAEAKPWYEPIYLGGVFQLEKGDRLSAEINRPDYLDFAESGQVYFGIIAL
Method in brief: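 Compound dilutions were preincubated 30 min at RT with 8.33 nM TNFα R1/Fc in PBST with 2% DMSO, then added to wells coated with 15 nM TNFα for 30 min. Bound receptor was detected with HRP anti-human Fc and TMB, read as A450.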

[2] = tested on: TNF-α (degradation of IkB in HeLa cells or A431 cells); experiment: Human cell-based assay: inhibition of TNF-α induced degradation of IkB; conditions: for inhibition at 10 µM: read-out: Inhibition at Various Compound Concentrations, 10 μM; for inhibition at 5 µM: read-out: Inhibition at Various Compound Concentrations, 5 μM; for inhibition at 25 µM: 25 μM compound, read-out: Inhibition at Various Compound Concentrations, 25 μM
Procedure: We used a human cell-based assay to determine the TNF-α antagonistic activity of the compounds of this invention based upon the ability of the compounds to inhibit the degradation of IkB in those cells. The assay was performed on either HeLa cells or A431 cells.
On Day 1, wells of a 24-well tissue culture plate were seeded with cells that had been harvested from cultures in T-75 flasks by standard trypsin/EDTA treatment. The harvested cells were suspended in EMEM/10% FBS/P/S (100,000 HeLa cells/mL or 200,000 A431 cells/mL) and 1 mL aliquots were placed into each well. The cells were incubated overnight at 37° C. in a humidified CO2 incubator. On day 2, the cells were approximately 95% confluent.
Test and control compounds were diluted to a 1 mM solution by dilution in DMSO. The assay was run in Costar tubes. Into each tube was placed 2.5 or 5.0 μL of test compound (for testing 5 μM and 10 μM concentrations, respectively), 2.5 μL of 100× TNF-α solution (200 ng/mL TNF-α in EMEM containing 1μg/mL cycloheximide) and, for those tubes containing 2.5 μL of compound, an additional 2.5 μL of DMSO. To each tube was then added 0.5 mL of EMEM containing 1μg/mL cycloheximide. Negative control tubes contained either a) no compound, or b) no TNF-α. Tubes were then incubated for 30 minutes at room temperature.
Once incubation had begun, the media was aspirated from the cells in the 24-well plates. Sufficient EMEM/10% FBS/P/S containing 1 ug/mL cycloheximide was then added to cover the cells (approximately 3 mL) and the cells were retuned to the 37° C. humidified CO2 incubator until compound incubation was completed. The media was then aspirated from the cells, 0.2 mL of the compound solution was added and the cells re-incubated at 37° C. for 30 minutes. The plates were then placed on ice, the compound solution was aspirated from each well, and the cells washed once with 1 mL of cold PBS. Cells were then fixed with 500 μL of 3.7% formaldehyde in PBS (“fix solution”) for 20 minutes at room temperature. The fix solution was decanted and the cells permeabilized by 4× washing with 500 uL PBS/0.1% Triton X-100. After the final permeabilization wash, the cells were treated with 500 uL of Odyssey blocking buffer (OBB) and incubated at room temperature with shaking for 90 minutes.
The OBB was decanted and then to each well was then added 125 μL each of mouse anti-IkB CST#4814 (diluted 1:200 in OBB) and rabbit anti-beta-tubulin CST#2146 (diluted 1:200 in OBB). Plates were sealed with parafin and incubated overnight at room temperature with shaking.
On day 3, the antibody solution was removed from the cells and the cells were washed 5× with 0.5 mL PBST for five minutes each on a shaker. To each well was then aded 125 μL of a secondary antibody solution containing goat anti-mouse IgG-IRDye 800 and goat anti-rabbit IgG-IRDye (each diluted 1:500 in OBB+0.2% Tween 20). The plates were covered with aluminum foil and incubated for 1 hour at room temperature with shaking. The secondary antibody solution was removed and the cells washed 3× with 0.5 mL PBST for five minutes each on a shaker. Cells were then scanned by LICOR with the following settings: 700 intensity=6.0, 800 intensity=6.5; microplate2 settings with 3.0 mm offset; 169 resolution. LICOR values were fitted to an equation for a sigmoidal curve and IC50 values calculated from the fitted parameters. […] Blank cells indicate that the compound was not tested at that concentration. Certain compounds that were tested more than once and the values reflect the average of the multiple tests.

[3] = read-out: Activity (IC50, inhibition of TNFα binding to TNFα R1/Fc)
[4] = 10 μM compound, HeLa or A431 cells
[5] = 5 μM compound, HeLa or A431 cells

Structure (SMILES)	IC50 [1, 3]	inhibition at 10 µM [2, 4]	inhibition at 5 µM [2, 5]	IC50 ([1]; Activity (IC50, inhibition of TNFα binding to TNFα R1/Fc))	inhibition at 5 µM [2]	inhibition at 10 µM [2]	inhibition at 25 µM ([2]; HeLa or A431 cells)
CC[C@H](C)[C@H](NC(=O)[C@@H]1Cc2ccc(cc2)OCC(=O)N[C@H](Cc2cccs2)C(=O)N[C@@H](Cc2ccc(-c3ccccc3)cc2)C(=O)N[C@H](CCc2ccccc2)C(=O)N1)C(=O)O [Compound 307]	< 10 µM	< 10%	–	–	–	–	–
O=C1CCC(=O)N[C@H](Cc2cccs2)C(=O)N[C@@H](Cc2ccc(-c3ccccc3)cc2)C(=O)N[C@H](Cc2ccccc2)C(=O)N[C@H](C(=O)NC2(C(=O)O)CC2)Cc2ccc(cc2)N1 [Compound 39] ([d2Thi][Bip][dF][Phe(4-NH2)][Ac3c]-OH; linker N-4 via Suc)	< 10 µM	10 to 50%	–	–	–	–	–
O=C1CCC(=O)N[C@H](Cc2ccc(C(F)(F)F)cc2)C(=O)N[C@@H](Cc2ccc(-c3ccccc3)cc2)C(=O)N[C@H](Cc2ccccc2)C(=O)N[C@H](C(=O)O)Cc2ccc(cc2)N1 [Compound 118] ([dPhe(4-CF3)][Bip][dF][Phe(4-NH2)]-OH; linker N-4 via Suc)	10 to 30 µM	10 to 50%	–	–	–	–	–
C[C@H](NC(=O)[C@@H]1Cc2ccc(cc2)OCC(=O)N[C@@H](Cc2cccs2)C(=O)N[C@@H](Cc2ccc(-c3ccccc3)cc2)C(=O)N[C@@H](Cc2ccccc2)C(=O)N1)C(=O)O [Compound 326]	< 10 µM	10 to 50%	10 to 50%	–	–	–	–
CC(=O)NCCCC[C@@H]1NC(=O)[C@@H](Cc2ccc(-c3ccccc3)cc2)NC(=O)[C@H](Cc2cccs2)NC(=O)COc2ccc(cc2)C[C@@H](C(=O)O)NC1=O [Compound 369]	10 to 30 µM	< 10%	< 10%	–	–	–	–
O=C1COc2ccc(cc2)C[C@@H](C(=O)NCCO)NC(=O)[C@H](Cc2ccccc2)NC(=O)[C@@H](Cc2ccc(-c3ccccc3)cc2)NC(=O)[C@H](Cc2cccs2)N1 [Compound 390]	–	–	–	< 10 µM	< 10%	50 to 80%	–
O=C(O)[C@@H]1Cc2ccc(cc2)NC(=O)[C@H](O)[C@@H](O)C(=O)N[C@H](Cc2cccs2)C(=O)N[C@@H](Cc2ccc(-c3ccccc3)cc2)C(=O)N[C@@H](CCc2ccccc2)C(=O)N1 [Compound 290]	< 10 µM	< 10%	< 10%	–	–	–	–
O=C1CCC(=O)N[C@H](Cc2cccs2)C(=O)N[C@@H](Cc2ccc(Br)cc2)C(=O)N[C@H](Cc2ccccc2)C(=O)N[C@H](C(=O)O)Cc2ccc(cc2)N1 [Compound 85] ([d2Thi][Phe(4-Br)][dF][Phe(4-NH2)]-OH; linker N-4 via Suc)	10 to 30 µM	–	–	–	–	–	< 10%
CC(C)(NC(=O)[C@@H]1Cc2ccc(cc2)OCC(=O)N[C@H](Cc2cccs2)C(=O)N[C@@H](Cc2ccc(-c3ccccc3)cc2)C(=O)N[C@H](CCc2ccccc2)C(=O)N1)C(=O)O [Compound 297]	< 10 µM	< 10%	< 10%	–	–	–	–
C[C@@H](NC(=O)[C@@H]1Cc2ccc(cc2)NC(=O)CCC(=O)N[C@H](Cc2cccs2)C(=O)N[C@@H](Cc2ccc(-c3ccccc3)cc2)C(=O)N[C@H](Cc2ccccc2)C(=O)N1)C(=O)O [Compound 24] ([d2Thi][Bip][dF][Phe(4-NH2)][dA]-OH; linker N-4 via Suc)	30 to 100 µM	–	–	–	–	–	< 10%
O=C1CCC(=O)N[C@H](Cc2cccs2)C(=O)N[C@@H](Cc2ccc(C(F)(F)F)cc2)C(=O)N[C@H](Cc2ccccc2)C(=O)N[C@H](C(=O)O)Cc2ccc(cc2)N1 [Compound 89] ([d2Thi][Phe(4-CF3)][dF][Phe(4-NH2)]-OH; linker N-4 via Suc)	10 to 30 µM	–	–	–	–	–	< 10%
